Measured values: patent US8541607B2, “Disulfide, sulfide, sulfoxide, and sulfone derivatives of cyclic sugars and uses thereof” (Lacer, S.A., priority 2003, dated 2013)

What was measured:
LDL = assay: Inhibition of LDL oxidation induced by haemin and H2O2 (conjugated dienes, 234 nm); assay type: biochemical, human; conditions: compounds at 10 μM; 2.5 μM haemin and 5 μM H2O2; mean ± s.e.m.
Source text: The method used in the assays to determine the effect of the compounds on LDL oxidation is substantially the same as described in the following references: • Sprenger T., et al., Chem. Phys. Lipids 1998; 91:39-52 • Lynch S. M., et al., Biochim. Biophys. Acta 2000; 1485:11-22 • Pedreño J., et al., Thromb. Res. 2000; 99: 51-60.
The method used in the assays to isolate LDL particles from fresh human plasma is substantially the same as described in Pedreño J., et al., Atherosclerosis 2001; 155: 99-112.
Oxidative modification of low-density lipoprotein (LDL) is currently believed to be a central event it the development of atherosclerotic cardiovascular disease. The exposition of LDL to globin-free haemin (the complex of ferric ion (Fe^3+) with protoporphyrin IX), derived from the haemoglobin in circulating erythrocytes, serves as a physiological source of pro-oxidant Fe^3+ capable to promoting LDL oxidation. The compounds were added in vitro to determine their inhibitory activity on LDL oxidation induced by haemin and H2O2. LDL at a final protein concentration of 0.2 mg/ml was incubated in the presence of 2.5 μM haemin and 5 μM H202. Oxidative modification of LDL particles was assessed by measurement of conjugated dienes. Experimental samples were incubated at 37° C. and the increase in absorbance at 234 nm was automatically recorded every 5 min for at least 5 h. The effect of compounds on the LDL oxidation induced by haemin was tested at 7 different concentrations using LDL preparations from 7 different healthy donors.

[1] = test system: human microvascular endothelial cells (HMEC-1); assay: Inhibition of LDL-Dil transcytosis through HMEC-1; assay type: cell-based; conditions: 2 h, mean ± s.e.m.; for Inhibition of LDL transcytosis, % of inhibition to control, Stimulated cells: HMEC-1 activated with 100 μM histamine; for Inhibition of LDL transcytosis, % of inhibition to control, Resting cells: non activated HMEC-1
Source text: The method used in the assays to determine the effect of the compounds on LDL transcytosis in human microvascular endothelial cells is substantially the same as described in Colomé C. et al; Atherosclerosis 2000; 149: 295-302. This test allows a prediction on the anti-atherosclerotic potential of the compounds, since the accumulation of LDL in the vascular wall as a consequence of a vascular endothelial cell active transport is one of the first steps in the development of atherosclerosis.
The method used in the assays to isolate LDL particles from fresh human plasma and the labelling with Di1 is substantially the same as described in Pedreño J. et al., Atherosclerosis 2001; 155: 99-112, and Stephan Z. F. and Yuracheck E. C. J. Lipid Res. 1993; 34:325-330
Activated (100 μM histamine) and non activated HMEC-1 were cultivated in the upper well of inserted of coculture until to reach confluence (Falcon HTS FluorBloK). Then, LPL-Dil (up to 200 μg/ml) was added and cells were incubated for 2 h in the presence and absence of compounds. After these two hours, transcytosis of LDL-Dil particles through endothelial cells was assessed by determination of the presence of fluorescence in the lower well of insert of coculture. Results are expressed as percentage of inhibition respect to control in the absence of compounds).

[2] = test system: U937 monocyte adhesion to activated HMEC-1 human endothelial cells; assay: Inhibition of U937 monocyte adhesion to TNF-α activated HMEC-1; assay type: cell-based; conditions: HMEC-1 activated by TNF-α (50 ng/ml); mean ± s.e.m.
Source text: The methods used in the assays to determine the effect of the compounds on platelet and monocyte adhesion to human endothelial cells are substantially the same as described in the following references: • Del Maschio A. et al., J Cell Biol 1996; 135: 497-510 • Bombeli T. et al., Blood 1999; 93: 3831-3838 • Colomé C. et al; Atherosclerosis 2000; 149: 295-302; and • Martin-Satue M. at al; British Journal of Cancer 1999; 80; 1169-1174
The adhesion of the U937-monocyte cells to confluent human microvasculature endothelial cells (HMEC-1) activated by means of TNF-α (50 ng/ml) and the platelets to human umbilical endothelial cells (HUVEC) were the methods used to determine the inhibitory effect of compounds on cellular adhesion. The adhesion of monocytes previously labeled with calcein-2M (Molecular Probes) to HMEC-1 activated by TNF-α, was assessed by determination of the associated-cell fluorescence. The adhesion of washed human platelets previously labeled with MoAb against CD36-FITC to activated-HUVEC (50 μg/ml of LDL minimally modified, LDLmm) was determined by Laser Scanning Cytometry (LSC, Olympus) determining the associated-cell fluorescence. Results are expressed as the percentage of inhibition respect to control (adhesion of the cells in the absence of compounds).

HUVEC cells = assay: In vitro protection against cytotoxicity induced by oxygen radicals (peroxynitrite), XTT method; assay type: cell-based, human; conditions: HUVEC pre-treated with 50 μM compound for one hour, then 800 μM peroxynitrite overnight
Source text: The method used is substantially the same as described by Caveda L., et al. (J. Clin. Invest. […]; 98: 886-893).
For the determination of the capacity to inhibit the cytotoxicity induced by oxygen radicals Human Umbilical Vein Endothelial Cells (HUVEC) were used. HUVEC were isolated and cultured in M199 and 20% FCS (Fetal Calf Serum).
Test XTT assay is based on […] by the metabolically active cells of the salt of tetrazolio XTT to form an orange product, the formazan dye formed is soluble and is directly quantified using an spectrophotometer.
HUVEC cells were cultivated until a sub-confluence status in a 96 well tissue culture plate and pre-treated with 50 μM of the compound for one hour. After that, cells were treated with 800 μM of peroxynitrite for an overnight.
After overnight incubation cells were incubated with the yellow XTT solution (final concentration 0.3 mg/ml) for 4 hours. After this incubation period, orange formazan solution was formed, which was spectrophotometrically quantified using an ELISA plate reader at 450 nm
The results are shown in table 15 and are expressed as percentage of death cells.

[3] = test system: platelets (Human Platelet Rich Plasma); assay: In vitro inhibition of ADP-induced platelet aggregation; assay type: cell-based; conditions: submaximal ADP (1-4 μM), mean ± s.d.
Method: The method used in the assays is substantially the same as described in following reference: • * Sales, E., at al., Br. J. Pharmacol. 112 (1994); 1071-1076.
The compounds are tested at four different concentrations, using platelet rich plasma from not less than 6 different healthy human donors. The results obtained are compared to those from 5-isosorbide mononitrate, which is used as reference product.
The results are shown in table 2 and are expressed as IC50 (inhibitory concentration 50), which is the concentration of each of the tested compounds yielding an inhibition equal to 50% of the aggregation obtained with a submaximal concentration (1-4 μM) of ADP (a submaximal concentration of ADP is the minimal amount of ADP which produces the maximal aggregation).

| Structure (SMILES) | % of increment of lag phase with respect to control (LDL oxidation) (LDL) [%] | Inhibition of LDL transcytosis, % of inhibition to control, Stimulated cells [1] [%] | Inhibition of LDL transcytosis, % of inhibition to control, Resting cells [1] [%] | % of inhibition to control, U937 monocyte adhesion [2] [%] | % of death cells (HUVEC cells) [%] | IC50 [3] [µM] |
| --- | --- | --- | --- | --- | --- | --- |
| CC(=O)S[C@H]1CO[C@H]2[C@@H]1OC[C@H]2O[N+](=O)[O-] [(12), 2-acetylthio-isosorbide-5-mononitrate] | 117 ± 56 | 80 ± 12 | 51 ± 19 | 15 ± 2 | 50 | 89 ± 10 |
| O=[N+]([O-])O[C@@H]1CO[C@H]2[C@@H]1OC[C@@H]2S [(1), 2-thioisosorbide 5-mononitrate] | 290 ± 8 | 122 ± 8 | 58 ± 15 | 30 ± 8 | 80 | 110 ± 10 |
